PubChem BioAssay (NCI)
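Protocol summary: plate cells (96-well), add compound at 5 concentrations, incubate 48 h, interpolate endpoints linearly. TGI: concentration producing complete growth inhibition.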

Columns and labels:
Experiment in all cases: DTP human tumour cell line panel, 48 h
SK-OV-3 ovarian = tested on: SK-OV-3 ovarian
NCI-H460 lung = tested on: NCI-H460 lung
OVCAR-3 ovarian = tested on: OVCAR-3 ovarian
M14 melanoma = tested on: M14 melanoma
HCT-15 colon = tested on: HCT-15 colon
UACC-257 melanoma = tested on: UACC-257 melanoma
UACC-62 melanoma = tested on: UACC-62 melanoma
MALME-3M melanoma = tested on: MALME-3M melanoma
HT29 colon = tested on: HT29 colon
HL-60(TB) leukemia = tested on: HL-60(TB) leukemia
KM12 colon = tested on: KM12 colon
EKVX NSCLC = tested on: EKVX NSCLC
NCI-H522 lung = tested on: NCI-H522 lung
MOLT-4 leukemia = tested on: MOLT-4 leukemia
RXF 393 renal = tested on: RXF 393 renal
HS 578T breast = tested on: HS 578T breast
MDA-MB-435 = tested on: MDA-MB-435
T-47D breast = tested on: T-47D breast
BT-549 breast = tested on: BT-549 breast

| Structure (SMILES) | TGI (SK-OV-3 ovarian) | TGI (NCI-H460 lung) | TGI (OVCAR-3 ovarian) | TGI (M14 melanoma) | TGI (HCT-15 colon) | TGI (UACC-257 melanoma) | TGI (UACC-62 melanoma) | TGI (MALME-3M melanoma) | TGI (HT29 colon) | TGI (HL-60(TB) leukemia) | TGI (KM12 colon) | TGI (EKVX NSCLC) | TGI (NCI-H522 lung) | TGI (MOLT-4 leukemia) | TGI (RXF 393 renal) | TGI (HS 578T breast) | TGI (MDA-MB-435) | TGI (T-47D breast) | TGI (BT-549 breast) |
| --- | --- | --- | --- | --- | --- | --- | --- | --- | --- | --- | --- | --- | --- | --- | --- | --- | --- | --- | --- |
| O=P(c1ccccc1)(c1ccccc1)C(NCc1ccccc1)c1ccc(F)cc1 (stereo unspecified) | 34.1 µM | 26.7 µM | 27.6 µM | 27.8 µM | 28.7 µM | 34.9 µM | 27.3 µM | 34.6 µM | 26.5 µM | > 100 µM | 29.1 µM | 25.4 µM | 25.2 µM | 37.5 µM | 28.3 µM | 98.2 µM | 23 µM | 60.7 µM |  |
| O=C(c1ccc(Cl)cc1Cl)N(C(=O)N1CCCCC1)c1ccccc1 | > 100 µM |  | > 100 µM | > 100 µM | > 100 µM | > 100 µM | > 100 µM | > 100 µM | > 100 µM | > 100 µM | > 100 µM | > 100 µM |  | > 100 µM | > 100 µM | > 100 µM | > 100 µM |  | > 100 µM |
| CC1CN=C(Nc2ccc(S(N)(=O)=O)cc2)S1 (stereo unspecified) | > 100 µM | > 100 µM | > 100 µM | > 100 µM | > 100 µM | > 100 µM |  | > 100 µM | > 100 µM | > 100 µM | > 100 µM | > 100 µM |  | > 100 µM |  | > 100 µM |  | > 100 µM |  |
| CC1=CC(=O)NP(=O)(Oc2ccc(C)cc2)N1 (stereo unspecified) | > 100 µM | > 100 µM | > 100 µM | > 100 µM | > 100 µM | > 100 µM | > 100 µM | > 100 µM | > 100 µM | > 100 µM | > 100 µM | > 100 µM | > 100 µM | > 100 µM |  |  |  |  |  |
| Cc1ccccc1Nc1cn(COCc2ccccc2)c(=O)[nH]c1=O |  | > 100 µM | > 100 µM | > 100 µM | > 100 µM | > 100 µM | > 100 µM |  | > 100 µM | > 100 µM | > 100 µM | > 100 µM | > 100 µM | > 100 µM | > 100 µM | > 100 µM | > 100 µM |  | 66.2 µM |
| O=C(CSc1nnc(Cc2ccccc2)o1)Nc1cccc([N+](=O)[O-])c1 | > 100 µM | > 100 µM | > 100 µM | > 100 µM | > 100 µM | > 100 µM | > 100 µM | > 100 µM | > 100 µM | > 100 µM | > 100 µM |  | > 100 µM | > 100 µM | > 100 µM |  |  |  |  |
| COc1cc(C2c3cc4c(cc3[C@@H](Nc3ccccc3)C3CO[C@@H](OC)[C@H]23)OCO4)cc(OC)c1O (stereo partly specified) | > 25 µM | > 25 µM |  | > 25 µM | > 25 µM | > 25 µM |  |  | 10.7 µM | 8.24 µM | > 25 µM | > 25 µM | > 25 µM | 6.34 µM |  | 17.3 µM | > 25 µM | > 25 µM |  |
| N#CC1=C(N2CCCC2)NC(=O)CC1=O | > 100 µM | > 100 µM | > 100 µM | > 100 µM | > 100 µM | > 100 µM | > 100 µM | > 100 µM | > 100 µM | > 100 µM | > 100 µM | > 100 µM | > 100 µM | > 100 µM | > 100 µM | > 100 µM | > 100 µM | > 100 µM |  |
| CCOC(=O)Cn1sc2ncc([N+](=O)[O-])cc2c1=O | 34.6 µM | 34.4 µM | 33.4 µM |  | 31.2 µM | 31.6 µM | 48.4 µM | 33.9 µM | 29.8 µM | > 100 µM | 34.3 µM | > 100 µM | 39.5 µM | 9.45 µM | 35.4 µM | > 100 µM | 30 µM | 37.5 µM |  |
| O=C1SCC(O)=C1/C=N/Nc1nc2ccccc2o1 | 82.8 µM | > 100 µM | 65.5 µM | 57.5 µM | > 100 µM | 72.5 µM | 46.1 µM | > 100 µM | 83.7 µM | 24.7 µM | > 100 µM | 96.1 µM |  | > 100 µM | 70.7 µM | > 100 µM | > 100 µM | 54.7 µM |  |
| O=C1CCC(c2ccccc2)C(O)(C(=O)O)C1 (stereo unspecified) | > 100 µM | > 100 µM | > 100 µM | > 100 µM | > 100 µM | > 100 µM | > 100 µM | > 100 µM | > 100 µM | > 100 µM | > 100 µM | > 100 µM | > 100 µM | > 100 µM |  |  |  |  |  |
| CC1=CC(=O)NCCN1C | > 100 µM | > 100 µM | > 100 µM | > 100 µM | > 100 µM | > 100 µM | > 100 µM | > 100 µM | > 100 µM | > 100 µM | > 100 µM | > 100 µM | > 100 µM | > 100 µM | > 100 µM |  |  |  |  |
| Cc1cc(=O)[nH]c(NNC(C#N)c2ccc(O)cc2)n1 (stereo unspecified) | > 100 µM | > 100 µM | > 100 µM | > 100 µM | > 100 µM | > 100 µM | > 100 µM | > 100 µM | > 100 µM | > 100 µM | > 100 µM |  | > 100 µM | > 100 µM | > 100 µM |  |  |  |  |
| Cc1ccc2nc3ccccc3c(C3C4C(=O)N(c5ccc(Br)cc5Cl)C(=O)C4ON3C(C(N)=O)c3ccccc3)c2c1 (stereo unspecified) | > 25 µM | > 25 µM | > 25 µM | > 25 µM | 19.5 µM | > 25 µM | > 25 µM | > 25 µM | > 25 µM | > 25 µM | > 25 µM | 15.5 µM | > 25 µM | > 25 µM | > 25 µM | > 25 µM | > 25 µM | > 25 µM |  |
| CCOC(=O)c1c(SC(=O)/C=C/c2ccccc2)n(-c2ccccc2)c(=S)n(-c2ccccc2)c1=O | > 100 µM | > 100 µM | > 100 µM | > 100 µM | > 100 µM | > 100 µM | > 100 µM | > 100 µM | > 100 µM |  | > 100 µM | > 100 µM | > 100 µM | > 100 µM | > 100 µM | > 100 µM | > 100 µM | > 100 µM |  |
